“Also recorded” adds a separate entry of the source.
How the values were obtained:
[1] = molecular target: dynamin I binding to SH3 domains of grb2, amphiphysin I, endophilin I (Homo sapiens, UniProt Q05193); test: Pull-down of dynamin I with SH3 domains; settings: 10, 40 and 100 µM 4a
Method: Recombinant human dynamin I was expressed in insect cells (SF21). Cells were lysed and sonicated in 20 mM HEPES buffer with 250 mM NaCl. The lysates were diluted in 20 mM HEPES buffer alone to obtain a final 50 mM NaCl concentration. This diluted lysate was used for pull-downs with 6 µg of GST-amphiphysin1 SH3, GST-endophilin SH3 or GST-grb2 SH3 (all recombinantly expressed in bacteria) immobilised on glutathione sepharose beads. Incubations were done in the presence or absence of 10, 40 and 100 µM 4a for 1 hr at 10°C. The GSH beads were then washed three times with ice cold PBS and the bound proteins were separated on 12% SDS-PAGE gels and visualised using Coomassie Blue.

[2] = test system: cultured CGNs; test: SV turnover by FM1-43 loading/unloading in cultured cerebellar granule neurons; format: cell-based, rat; settings: 30 μM, 15 min preincubation
Method: Granule neuron cultures were prepared from the cerebella of 7‐day‐old rat pups as previously described 57. In all experiments, neurons were used between 8 and 10 days in vitro.
Neuronal cultures were removed from culture medium and left for 10 min in incubation medium [170 mM NaCl, 3.5 mM KCl, 0.4 mM KH2PO4, 20 mM TES (N‐tris[hydroxy‐methyl]‐methyl‐2‐aminoethane‐sulfonic acid), 5 mM NaHCO3, 5 mM glucose, 1.2 mM Na2SO4, 1.2 mM MgCl2 and 1.3 mM CaCl2, pH 7.4]. Cultures were then mounted in a Warner imaging chamber (RC‐21BRFS). Invaginating membrane was loaded with FM1‐43 (10 μM) by evoking SV turnover with a brief train of action potentials (80 Hz for 10 seconds, 100 mA and 1‐millisecond pulse width, delivered using platinum wires embedded in the imaging chamber). Dye kept present for 1 min after stimulation to ensure all retrieving membrane was labeled (S1 loading). After a 10‐min rest period, accumulated dye was unloaded from nerve terminals using two consecutive maximal stimuli with incubation media supplemented with 50 mM KCl (50 mM NaCl removed to maintain osmolarity). The fluorescence decrease due to dye loss provides an estimate of the total number of synaptic vesicles turned over during stimulation (S1). After a 20‐min rest period the S1 protocol was repeated (S2 loading and unloading). […]

[3] = molecular target: native sheep brain dynamin I (Ovis aries, UniProt A0ACI6PDC7); test: PS liposome-stimulated (helical) dynamin I GTPase assay (Malachite Green); format: biochemical; settings: GTP 50–250 μM, 4a 0.5–6 μM, 17 nM dynamin I, Lineweaver–Burke
native sheep brain dynamin I, sequence (A0ACI6PDC7 entry or part of it): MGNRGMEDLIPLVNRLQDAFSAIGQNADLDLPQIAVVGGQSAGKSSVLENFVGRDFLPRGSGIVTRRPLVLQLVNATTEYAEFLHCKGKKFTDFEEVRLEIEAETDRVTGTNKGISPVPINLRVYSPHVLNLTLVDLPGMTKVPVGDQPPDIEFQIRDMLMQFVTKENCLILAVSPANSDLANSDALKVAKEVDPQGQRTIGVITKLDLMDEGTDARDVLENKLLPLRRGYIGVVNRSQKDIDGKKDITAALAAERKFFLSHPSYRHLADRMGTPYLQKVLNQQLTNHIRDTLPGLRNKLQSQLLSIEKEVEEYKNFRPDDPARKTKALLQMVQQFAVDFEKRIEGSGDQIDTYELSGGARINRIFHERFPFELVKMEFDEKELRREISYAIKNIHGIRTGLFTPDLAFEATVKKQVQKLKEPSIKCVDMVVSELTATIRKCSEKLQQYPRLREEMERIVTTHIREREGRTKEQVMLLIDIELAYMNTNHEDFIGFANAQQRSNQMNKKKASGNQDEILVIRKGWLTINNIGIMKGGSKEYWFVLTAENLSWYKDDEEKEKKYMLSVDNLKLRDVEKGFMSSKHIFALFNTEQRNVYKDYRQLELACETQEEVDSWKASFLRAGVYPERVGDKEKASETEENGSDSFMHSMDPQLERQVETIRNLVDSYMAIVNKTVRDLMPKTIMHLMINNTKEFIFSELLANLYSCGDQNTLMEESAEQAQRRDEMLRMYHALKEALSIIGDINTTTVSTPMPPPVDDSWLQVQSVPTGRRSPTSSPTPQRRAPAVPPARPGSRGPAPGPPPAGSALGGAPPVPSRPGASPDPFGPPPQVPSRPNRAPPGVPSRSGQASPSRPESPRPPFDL
Source text: Recombinant dynamin I was used only for the data in Table 2. The dynamin antibodies were from: Dynamin I—in‐house YF2 antibodies, raised in rabbits against two different synthetic peptides: dynamin I 629‐647 ([…]) and dynamin I 765–778 ([…]), used at 1/2000 dilution, as previously described 53; Dynamin II—Santa Cruz (C‐18, sc‐6400, used at 1/1000) and Dynamin III—Santa Cruz (P‐13, sc‐69472, used at 1/500 dilution).
The Malachite Green colorimetric GTPase assay was as described 10. Dynamin I activity was measured in its SAI activity state or was stimulated by three different methods. As each stimulus activates dynamin to different extents, each assay required different dynamin concentrations. First, maximal dynamin activity was stimulated by sonicated PS liposomes 10. […] Finally, dynamin (500 nM) SAI activity was measured using high concentrations of dynamin, which promote its cooperative self‐assembly into rings (but not helices) 26. […] After the Vmax and Km values were determined, the data were transformed using the Lineweaver–Burke equation, 1/v = 1/Vmax + (Km/Vmax)(1/[S]).

[4] = molecular target: grb2-stimulated dynamin I (from brain) (Ovis aries, UniProt A0ACI6PDC7); test: grb2-stimulated (ring) dynamin I GTPase assay; format: biochemical, sheep
grb2-stimulated dynamin I (from brain), sequence (A0ACI6PDC7 entry or part of it): as above
Method: The Malachite Green colorimetric GTPase assay was as described 10. Dynamin I activity was measured in its SAI activity state or was stimulated by three different methods. As each stimulus activates dynamin to different extents, each assay required different dynamin concentrations. First, maximal dynamin activity was stimulated by sonicated PS liposomes 10. Purified dynamin I (10–20 nM, diluted in: 6 mM Tris–HCl, 20 mM NaCl and 0.01% Tween 80, pH 7.4) was incubated in 96‐well plates in GTPase buffer (5 mM Tris–HCl, 10 mM NaCl, 2 mM Mg^2+, 0.05% Tween 80, pH 7.4, 1 µg/mL leupeptin and 0.1 mM PMSF) and GTP 0.3 mM in the presence of test compound for 30 min at 37°C in a final assay volume of 150 μL. Reactions were terminated with 10 μL of 0.5 M ethylenediaminetetraacetic acid (EDTA) pH 7.4 and Malachite Green solution (40 μL: 2% w/v ammonium molybdate tetrahydrate, 0.15% w/v malachite green and 4 M HCl) was added for 5 min. Second, dynamin (20 nM) was stimulated by 10 µg/mL of taxol‐stabilized preformed bovine brain microtubules (Cytoskeleton, Inc) using the same protocol. […] Finally, dynamin (500 nM) SAI activity was measured using high concentrations of dynamin, which promote its cooperative self‐assembly into rings (but not helices) 26. […] After the Vmax and Km values were determined, the data were transformed using the Lineweaver–Burke equation, 1/v = 1/Vmax + (Km/Vmax)(1/[S]).

dynamin I binding to SH3 domains of grb2, amphiphysin I, endophilin I, sequence (Q05193 whole entry, the tested form may be a part): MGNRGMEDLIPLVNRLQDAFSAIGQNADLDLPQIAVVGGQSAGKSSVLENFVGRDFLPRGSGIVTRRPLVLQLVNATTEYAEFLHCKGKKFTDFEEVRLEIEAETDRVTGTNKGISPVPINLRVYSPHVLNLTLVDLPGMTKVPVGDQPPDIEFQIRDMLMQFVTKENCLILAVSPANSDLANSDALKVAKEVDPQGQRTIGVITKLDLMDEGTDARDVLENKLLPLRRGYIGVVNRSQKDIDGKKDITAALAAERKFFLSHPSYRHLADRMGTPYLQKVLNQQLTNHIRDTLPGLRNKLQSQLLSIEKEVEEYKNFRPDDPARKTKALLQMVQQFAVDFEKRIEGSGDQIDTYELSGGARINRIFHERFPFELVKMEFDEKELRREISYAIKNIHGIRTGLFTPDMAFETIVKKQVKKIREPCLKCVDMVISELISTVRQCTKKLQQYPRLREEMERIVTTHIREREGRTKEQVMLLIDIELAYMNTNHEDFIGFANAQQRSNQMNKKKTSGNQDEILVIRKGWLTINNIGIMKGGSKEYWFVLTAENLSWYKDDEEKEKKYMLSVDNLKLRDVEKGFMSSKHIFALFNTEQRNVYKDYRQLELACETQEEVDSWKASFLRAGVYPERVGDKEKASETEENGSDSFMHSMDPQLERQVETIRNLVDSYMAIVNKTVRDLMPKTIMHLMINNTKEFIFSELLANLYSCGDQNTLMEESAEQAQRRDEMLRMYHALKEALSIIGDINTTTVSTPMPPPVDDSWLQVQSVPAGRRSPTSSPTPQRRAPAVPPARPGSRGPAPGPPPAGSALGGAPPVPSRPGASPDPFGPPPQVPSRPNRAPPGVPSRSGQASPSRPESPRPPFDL

Row | SMILES | effect on dynamin I binding to SH3 domains [1] | FM1-43 unloading (SV exocytosis) [2] | kinetics of inhibition with respect to GTP [3] | block of grb2-SH3 stimulated ring dynamin activity ([4]; presence of Tween-80) | fold reduced activity against grb2-stimulated ring dynamin versus PS-stimulated helical dynamin ([4]; without Tween-80)
1 | O=C(N/N=C/c1cc(O)c(O)cc1O)c1cc2ccccc2cc1O [4a, (E)-3-Hydroxy-N'-(2,4,5-trihydroxybenzylidene) -2-naphthohydrazide] | did not disrupt the binding; also recorded: no effect | did not have a significant acute effect | non‐competitive inhibitor |  | 
2 | O=C(N/N=C/c1ccc(O)c(O)c1)c1cc2ccccc2cc1O [Dynasore, (E)-N'-(3,4-Dihydroxybenzylidene)-3-hydroxy-2-naphthohydrazide] |  |  |  | did not block | threefold less potent

Reference: publication PMC4138991, “Building a Better Dynasore: The Dyngo Compounds Potently Inhibit Dynamin and Endocytosis” (Traffic (Copenhagen, Denmark), 2013)
